The results in this text go back to patent US20240308995A1, “O-GLYCOPROTEIN-2-ACETAMIDO-2-DEOXY-3-D-GLUCOPYRANOSIDASE INHIBITORS” (BIOGEN MA INC., priority 2018, published 2024).

Data set [1] is described as follows: Rat Liver Microsome Stability Assay. Format: in vitro ADME. Conditions: rat liver microsomes, 1 uM compound. On the technique in general: Microsomes from liver hold many membrane-bound enzymes, among them those of drug oxidation.
Data set [2] addresses OGA (S400 O-GLCNAC), HEK-293T cells transfected with Tau-V5 (Homo sapiens (Human), UniProt O60502). Description: Cellular OGA-Tau MSD Assay. Format: cell-based. Conditions: HEK-293T cells, Tau-S400-GlcNAc MSD readout. The procedure, abridged: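 HEK-293T cells transfected with OGA and Tau-V5 plasmids were treated overnight at 37° C with a 10-point, 3-fold titration from 1 uM. Lysates went onto V5-antibody MSD plates to capture Tau, probed with a Tau O-GlcNAc antibody and read by electrochemiluminescence; IC50 from a 4-parameter fit.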

The target of data set [3] is Recombinant full length human OGA enzyme (Homo sapiens (Human), UniProt O60502). Description: OGA Enzyme Inhibition Biochemical Assay. The settings on record: 1 nM OGA, 100 μM 4-MUGlcNAc, pH 6.4. Summed up: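 Full-length recombinant human OGA with fluorogenic 4-MUGlcNAc in McIlvaine buffer pH 6.4, 0.01% BSA; 90 min at room temperature, glycine pH 10 quench, fluorescence Ex 355/Em 460 nm. 10-point, 4-fold dilution from 20 μM; 4-parameter variable-slope fit.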
Recombinant full length human OGA enzyme, sequence (O60502 whole entry): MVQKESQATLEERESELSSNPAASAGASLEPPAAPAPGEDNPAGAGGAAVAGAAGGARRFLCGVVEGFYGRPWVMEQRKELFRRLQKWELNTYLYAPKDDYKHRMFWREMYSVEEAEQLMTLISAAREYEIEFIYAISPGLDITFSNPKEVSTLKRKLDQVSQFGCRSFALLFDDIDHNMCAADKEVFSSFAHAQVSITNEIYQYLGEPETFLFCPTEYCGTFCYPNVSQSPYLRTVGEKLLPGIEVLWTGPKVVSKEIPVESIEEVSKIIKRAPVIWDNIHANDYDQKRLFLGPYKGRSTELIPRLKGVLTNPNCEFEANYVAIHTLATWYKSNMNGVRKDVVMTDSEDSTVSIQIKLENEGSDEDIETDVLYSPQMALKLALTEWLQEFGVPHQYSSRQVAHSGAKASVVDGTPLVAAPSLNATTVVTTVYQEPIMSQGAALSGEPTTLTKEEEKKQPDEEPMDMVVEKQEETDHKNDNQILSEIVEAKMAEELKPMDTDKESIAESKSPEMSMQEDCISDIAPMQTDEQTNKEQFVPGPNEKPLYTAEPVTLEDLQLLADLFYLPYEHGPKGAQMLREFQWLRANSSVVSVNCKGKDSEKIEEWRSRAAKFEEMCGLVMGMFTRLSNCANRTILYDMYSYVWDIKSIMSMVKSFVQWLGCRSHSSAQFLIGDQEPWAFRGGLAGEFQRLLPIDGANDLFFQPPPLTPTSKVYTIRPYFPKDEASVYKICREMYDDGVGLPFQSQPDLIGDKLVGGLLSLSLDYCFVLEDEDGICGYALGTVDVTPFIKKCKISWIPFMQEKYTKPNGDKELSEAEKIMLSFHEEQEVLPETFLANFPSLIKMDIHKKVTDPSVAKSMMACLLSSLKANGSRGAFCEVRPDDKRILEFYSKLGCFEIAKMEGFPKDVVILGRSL

Another data set has as its system P-gp (MDR1). Description: MDR1-MDCK Efflux Ratio Assay. The settings on record: dog, MDCK-MDR1, pH 7.4, MDR1-MDCK cells, 2 hr, pH 7.4; read-out: MDR1-MDCK Efflux Ratio (B-A/A-B). Type of data set: in vitro ADME. Summed up:
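Bidirectional (apical↔basolateral) transport across confluent MDR1-MDCK monolayers in HBSS/10 mM HEPES pH 7.4, receiver buffer with 1% BSA; 2 hr at 37° C, 5% CO2. Donor sampled at 0 and 120 min, receiver at 120 min, quantified by LC-MS/MS in triplicate. Papp, efflux ratio and percent recovery calculated.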

OGA (S400 O-GLCNAC), HEK-293T cells transfected with Tau-V5, sequence (O60502 whole entry): as above

With `COc1cccc(O[C@@H]2C[C@H](C)N(Cc3sc(NC(C)=O)nc3F)C2)n1` [Example 1-99, N-(4-fluoro-5-(((2S,4R)-4-((6-methoxypyridin-2-yl)oxy)-2-methylpyrrolidin-1-yl)methyl)thiazol-2-yl)acetamide], the “RLM % Qh (%)” value in data set [1] was 95%. In addition, the IC50 in data set [2] was 1 nM; in data set [3] it was below 1 nM. Also, the efflux ratio at 2 h in the data set on P-gp (MDR1) was 2.2.
As for `CC(=O)Nc1nc(F)c(CN2C[C@H](Oc3cc(Cl)ccn3)C[C@@H]2C)s1` [Example 1-101, N-(5-(((2S,4R)-4-((4-chloropyridin-2-yl)oxy)-2-methylpyrrolidin-1-yl)methyl)-4-fluorothiazol-2-yl)acetamide], the “RLM % Qh (%)” value in data set [1] was determined as 88%. The IC50 in data set [2] is 3 nM; in data set [3], below 1 nM. For the same compound, the efflux ratio at 2 h in the data set with P-gp (MDR1) turned out to be 1.5.
Turning to `CC(=O)Nc1nc(F)c(CN2C[C@H](Oc3cc(F)c(F)cn3)C[C@@H]2C)s1` [Example 1-102, N-(5-(((2S,4R)-4-((4,5-difluoropyridin-2-yl)oxy)-2-methylpyrrolidin-1-yl)methyl)-4-fluorothiazol-2-yl)acetamide], the “RLM % Qh (%)” value in data set [1] is on record as 82%. Further, the IC50 in data set [2] is 2 nM; in data set [3] it was below 1 nM. In the data set with P-gp (MDR1), the efflux ratio at 2 h is 1.2.
Regarding `CC(=O)Nc1nc(F)c(CN2C[C@H](Oc3cc(N4CCOCC4)ncn3)C[C@@H]2C)s1` [Example 1-103, N-(4-fluoro-5-(((2S,4R)-2-methyl-4-((6-morpholinopyrimidin-4-yl)oxy)pyrrolidin-1-yl)methyl)thiazol-2-yl)acetamide], the “RLM % Qh (%)” value in data set [1] is given as 45%. Besides, the IC50 is 3 nM in data set [2] and below 1 nM in data set [3]. Moreover, the efflux ratio at 2 h in the data set with P-gp (MDR1) is 15.9.
For the compound `CC(=O)Nc1ncc(CN2C[C@H](Oc3ccnc(C)n3)C[C@@H]2C)s1` [Example 1-104, N-(5-(((2S,4R)-2-methyl-4-((2-methylpyrimidin-4-yl)oxy)pyrrolidin-1-yl)methyl)thiazol-2-yl)acetamide], in data set [1], the “RLM % Qh (%)” value is on record as 30%. Besides, the IC50 is 2 nM in data set [2] and below 1 nM in data set [3]. The efflux ratio at 2 h with P-gp (MDR1) worked out at 16.
Regarding `COc1cnc(O[C@@H]2C[C@H](C)N(Cc3sc(NC(C)=O)nc3F)C2)cn1` [Example 1-105, N-(4-fluoro-5-(((2S,4R)-4-((5-methoxypyrazin-2-yl)oxy)-2-methylpyrrolidin-1-yl)methyl)thiazol-2-yl)acetamide], in data set [1], the “RLM % Qh (%)” value was found to be 74%. For the same compound, the IC50 in data set [2] was 2 nM; in data set [3], below 1 nM. Besides, in the data set on P-gp (MDR1), the efflux ratio at 2 h stood at 2.4.
Taken in the same sequence, the figures for `CC(=O)Nc1nc(F)c(CN2C[C@H](Oc3cnc(C)cn3)C[C@@H]2C)s1` [Example 1-108, N-(4-fluoro-5-(((2S,4R)-2-methyl-4-((5-methylpyrazin-2-yl)oxy)pyrrolidin-1-yl)methyl)thiazol-2-yl)acetamide] were 79%, 2 nM, below 1 nM and 3.4.
Taken in the same sequence, the figures for `CC(=O)Nc1nc(F)c(CN2C[C@H](Oc3cc(O)ncn3)C[C@@H]2C)s1` [Example 1-109, N-(4-fluoro-5-(((2S,4R)-4-((6-hydroxypyrimidin-4-yl)oxy)-2-methylpyrrolidin-1-yl)methyl)thiazol-2-yl)acetamide] were 16%, 8 nM, below 1 nM and 12.7.
Turning to `CC(=O)Nc1nc(F)c(CN2C[C@H](Oc3ccnc(C)c3)C[C@@H]2C)s1` [Example 1-110, N-(4-fluoro-5-(((2S,4R)-2-methyl-4-((2-methylpyridin-4-yl)oxy)pyrrolidin-1-yl)methyl)thiazol-2-yl)acetamide], the “RLM % Qh (%)” value in data set [1] is reported as 39%. Also, the IC50 in data set [2] was 1 nM; in data set [3], below 1 nM. Moreover, the efflux ratio at 2 h in the data set on P-gp (MDR1) was 34.4.
In the case of `CC(=O)Nc1nc(F)c(CN2C[C@H](Oc3ncc(F)cn3)C[C@@H]2C)s1` [Example 1-112, N-(4-fluoro-5-(((2S,4R)-4-((5-fluoropyrimidin-2-yl)oxy)-2-methylpyrrolidin-1-yl)methyl)thiazol-2-yl)acetamide], the “RLM % Qh (%)” value in data set [1] turned out to be 45%. Further, the IC50 is 1 nM in data set [2] and below 1 nM in data set [3]. In addition, the efflux ratio at 2 h in the data set with P-gp (MDR1) came out at 5.3.
As to `CC(=O)Nc1nc(F)c(CN2C[C@H](Oc3cnc(C(F)F)cn3)C[C@@H]2C)s1` [Example 1-113, N-(5-(((2S,4R)-4-((5-(difluoromethyl)pyrazin-2-yl)oxy)-2-methylpyrrolidin-1-yl)methyl)-4-fluorothiazol-2-yl)acetamide], in data set [1], the “RLM % Qh (%)” value was 61%. Moreover, the IC50 was 5 nM in data set [2] and 2.1 nM in data set [3]. The efflux ratio at 2 h with P-gp (MDR1) was determined as 2.1.
For the compound `COc1ccc(O[C@@H]2C[C@H](C)N(Cc3sc(NC(C)=O)nc3F)C2)cn1` [Example 1-114, N-(4-fluoro-5-(((2S,4R)-4-((6-methoxypyridin-3-yl)oxy)-2-methylpyrrolidin-1-yl)methyl)thiazol-2-yl)acetamide], in data set [1], the “RLM % Qh (%)” value was determined as 69%. The IC50 in data set [2] was 2 nM; in data set [3], below 1 nM. Besides, the efflux ratio at 2 h in the data set with P-gp (MDR1) was found to be 1.9.
On to `CC(=O)Nc1ncc(CN2C[C@H](Oc3ccc(F)nc3)C[C@@H]2C)s1` [Example 1-115, N-(5-(((2S,4R)-4-((6-fluoropyridin-3-yl)oxy)-2-methylpyrrolidin-1-yl)methyl)thiazol-2-yl)acetamide], for which the “RLM % Qh (%)” value in data set [1] is 54%. Moreover, the IC50 is 2 nM in data set [2] and below 1 nM in data set [3]. The efflux ratio at 2 h in the data set on P-gp (MDR1) was determined as 4.7.
With `COc1cc(O[C@@H]2C[C@H](C)N(Cc3sc(NC(C)=O)nc3F)C2)ncc1F` [Example 1-118, N-(4-fluoro-5-(((2S,4R)-4-((5-fluoro-4-methoxypyridin-2-yl)oxy)-2-methylpyrrolidin-1-yl)methyl)thiazol-2-yl)acetamide], the “RLM % Qh (%)” value in data set [1] was found to be 85%. The IC50 in data set [2] is 1 nM; in data set [3], below 1 nM. Also, the efflux ratio at 2 h in the data set on P-gp (MDR1) turned out to be 3.5.
With `CC(=O)Nc1nc(F)c(CN2C[C@H](Oc3cncnc3)C[C@@H]2C)s1` [Example 1-119, N-(4-fluoro-5-(((2S,4R)-2-methyl-4-(pyrimidin-5-yloxy)pyrrolidin-1-yl)methyl)thiazol-2-yl)acetamide], in data set [1], the “RLM % Qh (%)” value turned out to be 50%. The results for the IC50 in data set [2] and in data set [3] were 19 nM and 1.3 nM, respectively. In addition, the efflux ratio at 2 h in the data set with P-gp (MDR1) is 6.3.
As to `CO[C@H]1C[C@H](Oc2cc(O[C@@H]3C[C@H](C)N(Cc4cnc(NC(C)=O)s4)C3)ncn2)C1` [Example 1-120, N-(5-(((2S,4R)-4-((6-((1r,3R)-3-methoxycyclobutoxy)pyrimidin-4-yl)oxy)-2-methylpyrrolidin-1-yl)methyl)thiazol-2-yl)acetamide], the “RLM % Qh (%)” value in data set [1] turned out to be 64%. Also, the figures for the IC50 in data set [2] and in data set [3] were 2 nM and below 1 nM, respectively. Moreover, the efflux ratio at 2 h with P-gp (MDR1) came out at 10.3.
The like results for `COCCOc1cc(O[C@@H]2C[C@H](C)N(Cc3cnc(NC(C)=O)s3)C2)ncn1` [Example 1-122, N-(5-(((2S,4R)-4-((6-(2-methoxyethoxy)pyrimidin-4-yl)oxy)-2-methylpyrrolidin-1-yl)methyl)thiazol-2-yl)acetamide] were, in that order, 32%, 3 nM, below 1 nM and 2.1.
Take `CO[C@H]1C[C@@H](Oc2cc(O[C@@H]3C[C@H](C)N(Cc4cnc(NC(C)=O)s4)C3)ncn2)C1` [Example 1-123, N-(5-(((2S,4R)-4-((6-((1s,3S)-3-methoxycyclobutoxy)pyrimidin-4-yl)oxy)-2-methylpyrrolidin-1-yl)methyl)thiazol-2-yl)acetamide]: the “RLM % Qh (%)” value in data set [1] was 55%. Moreover, the IC50 in data set [2] worked out at 5 nM; in data set [3] it was 1.1 nM. Also, the efflux ratio at 2 h in the data set with P-gp (MDR1) stood at 5.7.
As to `CC(=O)Nc1ncc(CN2C[C@H](Oc3cc(OC4COC4)ncn3)C[C@@H]2C)s1` [Example 1-124, N-(5-(((2S,4R)-2-methyl-4-((6-(oxetan-3-yloxy)pyrimidin-4-yl)oxy)pyrrolidin-1-yl)methyl)thiazol-2-yl)acetamide], the “RLM % Qh (%)” value in data set [1] worked out at 16%. Further, the IC50 was 3 nM in data set [2] and below 1 nM in data set [3]. In addition, in the data set with P-gp (MDR1), the efflux ratio at 2 h was determined as 11.2.
Consider `CCOc1cc(O[C@@H]2C[C@H](C)N(Cc3cnc(NC(C)=O)s3)C2)ncn1` [Example 1-126, N-(5-(((2S,4R)-4-((6-ethoxypyrimidin-4-yl)oxy)-2-methylpyrrolidin-1-yl)methyl)thiazol-2-yl)acetamide], for which the “RLM % Qh (%)” value in data set [1] amounted to 48%. Also, the IC50 in data set [2] is 2 nM; in data set [3] it was below 1 nM. Besides, the efflux ratio at 2 h in the data set with P-gp (MDR1) is 3.8.

The IC50 is the concentration that gives 50% inhibition.
